Laboratory results from patent publication US20100331338A1, “Glucokinase Activators” (Merck Patent GMBH, priority 2008, published 2010).

Each compound was assayed against T1, hGK (Homo sapiens, UniProt P35557) (assay: Glucokinase Activation Screening Assay (coupled enzyme assay with PK/LDH)). Settings: 2 mM glucose.
T1 sequence (P35557 1-465): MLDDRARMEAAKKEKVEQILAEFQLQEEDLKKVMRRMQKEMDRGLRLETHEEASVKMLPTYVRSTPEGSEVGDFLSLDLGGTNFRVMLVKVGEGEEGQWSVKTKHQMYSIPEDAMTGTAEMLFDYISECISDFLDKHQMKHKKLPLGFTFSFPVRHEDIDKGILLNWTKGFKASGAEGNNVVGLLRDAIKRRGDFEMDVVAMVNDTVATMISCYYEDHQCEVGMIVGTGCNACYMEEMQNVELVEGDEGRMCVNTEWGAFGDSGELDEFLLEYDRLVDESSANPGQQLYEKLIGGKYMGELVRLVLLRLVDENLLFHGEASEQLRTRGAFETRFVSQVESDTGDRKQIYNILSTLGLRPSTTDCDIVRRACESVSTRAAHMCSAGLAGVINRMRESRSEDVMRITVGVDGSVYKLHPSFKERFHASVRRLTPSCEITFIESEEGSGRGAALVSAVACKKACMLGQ
Format: biochemical
Procedure: Glucokinase Activation Screening Assay
GK activity (human or rat enzyme) is measured by a coupled enzyme assay using pyruvate kinase (PK) and lactate dehydrogenase (LDH) as coupling enzymes. GK activity is calculated from the decline in NADH monitored photometrically with a microtiter plate (MTP) reader at 340 nm.
For screening purposes, the GK assay is routinely run in a 384-MTP format, in a total volume of 33 μl/well. 10 μl of the ATP-regeneration solution (in HEPES-buffer*, pH 7.0, 6.73 U/ml pyruvate kinase, 6.8 U/ml lactate dehydrogenase) and 10 μl of the glucokinase-/glucose solution (15 μg/ml, 6.6 mM glucose in HEPES-buffer*, pH 7.0; the concentration of the glucose stock-solution was 660 mM in Millipore H2O) were mixed together with […] of a 10% DMSO solution (in HEPES-buffer*, pH 7.0) containing 3.3-fold the amounts of the compounds to achieve final compound concentrations in the range between 1 nM to 30 μM (sometimes 300 μM) in the assay solution (s. below). The solutions were mixed for 5 sec, and after a centrifugation at 243×g for 5 min, the solutions were preincubated for 25 min at room temperature.
The reaction was started by the addition of 10 μl of the NADH-/ATP-solution (4.29 mM NADH, 4.95 mM ATP, in HEPES-buffer*). The MTP was shaken for 5 sec., and then, the absorbance at 340 nm was monitored continuously in a MTP-reader (TECAN Spectro fluor plus) for the next 27 min (with a MTP-cycling time of 199 sec.). The final concentrations of the various components were as follows: 49.5 mM Hepes, pH 7.0, 1.49 mM PEP,1,3 mM NADH, 49.5 mM KCl, 4.96 mM MgCl2, 1.5 mM Mg-ATP, 1.98 mM DTT, 2.04 U/ml pyruvate kinase, 2.06 U/ml lactate-dehydrogenase, 0.91% DMSO, 0.15 μg/well glucokinase, and test compounds in the range between 1 nM and 300 μM.
The change in the optical density (ΔOD340 nm) in the presence of the compound was expressed relative to the ΔOD340 nm, ctrl of the control incubation (in the presence of 2 mM glucose and 0.91% DMSO), taking into account the optical density of the blank sample (incubation in the absence of 2 mM glucose). For the determination of the half maximal effective concentration (EC50), the %-Ctrl-values were plotted in a semi-logarithmic graph against the conc. of the compound of interest. The data points were fitted to a sigmoid curve function (f(x)=((%-Ctrlmax%-Ctrlmin)/(1−(EC50/x**^n(Hill)))+%-Ctrlmin)) by a non-linear regression analysis.
* Hepes-buffer (50 mM Hepes, pH 7.0, 5 mM MgCl2, 50 mM KCl, 1.5 mM PEP, 0.1% BSA). DTT was added to the Hepes-buffer from a 200× stock solution (in Millipore H2O) freshly each day. The final concentration of DTT in the Hepes-buffer is 2 mM.

| EC50 [µM] | Structure (SMILES) |
| --- | --- |
| 5.9 | CS(=O)(=O)c1cc(C(=O)Nc2nccs2)sc1Cl [Example 5, 5-Chloro-4-methanesulfonyl-thiophene-2-carboxylic acid thiazol-2-ylamide] |
| 9.3 | CCCc1cc(C(=O)Nc2nc(C)cs2)cs1 [Example 10, 5-Propyl-thiophene-3-carboxylic acid(4-methyl-thiazol-2-yl)-amide] |
| 15 | CCCc1cc(C(=O)Nc2nc(CC(=O)OCC)cs2)cs1 [Example 11, {2-[(5-Propyl-thiophene-3-carbonyl)-amino]thiazol-4-yl}-acetic acid ethyl ester] |
| 5 | CCCc1cc(C(=O)Nc2nc(C(=O)OCC)cs2)cs1 [Example 12, 2-[(5-Propyl-thiophene-3-carbonyl)-amino]-thiazole-4-carboxylic acid ethyl ester] |
| 4.2 | CCOC(=O)Cn1ccc(NC(=O)c2cc(COC)cs2)n1 [Example 40, {3-[(4-Methoxymethyl-thiophene-2-carbonyl)-amino]-pyrazol-1-yl}-acetic acid ethyl ester] |
| 9 | CCCc1cc(C(=O)Nc2nc(C(=O)O)cs2)cs1 [Example 42, 2-[(5-Propyl-thiophene-3-carbonyl)-amino]-thiazole-4-carboxylic acid] |

Same assay, conditions: fold activation at 30 μM compound, 2 mM glucose

| hGK fold activation at 30 μM | Structure (SMILES) |
| --- | --- |
| 1.3 | O=C(Nc1nccs1)c1ccsc1 [Example 2, Thiophene-3-carboxylic acid thiazol-2-ylamide] |
| 1.3 | O=C(Nc1nccs1)c1cccs1 [Example 3, Thiophene-2-carboxylic acid thiazol-2-ylamide] |
| 3.4 | Cc1csc(C(=O)Nc2nccs2)c1 [Example 4, 4-Methyl-thiophene-2-carboxylic acid thiazol-2-ylamide] |
| 1.9 | CS(=O)(=O)c1cc(C(=O)Nc2nccs2)sc1Cl [Example 5, 5-Chloro-4-methanesulfonyl-thiophene-2-carboxylic acid thiazol-2-ylamide] |
| 1.2 | O=C(Nc1nccs1)c1csc2ccccc12 [Example 6, Benzo[b]thiophene-3-carboxylic acid thiazol-2-ylamide] |
| 1.2 | O=C(Nc1nccs1)c1csc2c1CCCC2 [Example 7, 4,5,6,7-Tetrahydro-benzo[b]thiophene-3-carboxylic acid thiazol-2-ylamide] |
| 1.6 | CC1CCc2c(C(=O)Nc3nccs3)csc2C1 (centres unmarked) [Example 8, 6-Methyl-4,5,6,7-tetrahydro-benzo[b]thiophene-3-carboxylic acid thiazol-2-ylamide] |
| 5.2 | CCCc1cc(C(=O)Nc2nc(C)cs2)cs1 [Example 10, 5-Propyl-thiophene-3-carboxylic acid(4-methyl-thiazol-2-yl)-amide] |
| 4.9 | CCCc1cc(C(=O)Nc2nc(CC(=O)OCC)cs2)cs1 [Example 11, {2-[(5-Propyl-thiophene-3-carbonyl)-amino]thiazol-4-yl}-acetic acid ethyl ester] |
| 2.6 | CCCc1cc(C(=O)Nc2nc(C(=O)OCC)cs2)cs1 [Example 12, 2-[(5-Propyl-thiophene-3-carbonyl)-amino]-thiazole-4-carboxylic acid ethyl ester] |
| 1.5 | CCCc1cc(C(=O)Nc2nc(C)c(C(=O)OCC)s2)cs1 [Example 13, 4-Methyl-2-[(5-propyl-thiophene-3-carbonyl)-amino]-thiazole-5-carboxylic acid ethyl ester] |
| 2.1 | CCCc1cc(C(=O)Nc2ncc[nH]2)cs1 [Example 14, 5-Propyl-thiophene-3-carboxylic acid(1H-imidazol-2-yl)-amide] |
| 3 | COCc1csc(C(=O)Nc2ccn(Cc3ccccn3)n2)c1 [Example 15, 4-Methoxymethyl-thiophene-2-carboxylic acid(1-pyridin-2-ylmethyl-1H-pyrazol-3-yl)-amide] |
| 1.3 | Cc1csc(C(=O)Nc2cc(C)n(Cc3ccccn3)n2)c1 [Example 16, 4-Methyl-thiophene-2-carboxylic acid(5-methyl-1-pyridin-2-ylmethyl-1H-pyrazol-3-yl)-amide] |
| 1.8 | COCc1csc(C(=O)Nc2cc(C)n(Cc3ccccn3)n2)c1 [Example 17, 4-Methoxymethyl-thiophene-2-carboxylic acid(5-methyl-1-pyridin-2-ylmethyl-1H-pyrazol-3-yl)-amide] |
| 1.2 | CS(=O)(=O)c1csc(C(=O)Nc2nccs2)c1Cl [Example 18, 3-Chloro-4-methanesulfonyl-thiophene-2-carboxylic acid thiazol-2-ylamide] |
| 1.5 | O=C(Nc1nccs1)c1cc(-c2ccc(Cl)cc2)cs1 [Example 19, 4-(4-Chloro-phenyl)-thiophene-2-carboxylic acid thiazol-2-ylamide] |
| 1.4 | O=C(Nc1nccs1)c1csc([N+](=O)[O-])c1 [Example 20, 5-Nitro-thiophene-3-carboxylic acid thiazol-2-ylamide] |

| hGK fold activation at 30 μM | Structure (SMILES) |
| --- | --- |
| 2.4 | CCCc1cc(C(=O)Nc2nc3ccccc3[nH]2)cs1 [Example 21, 5-Propyl-thiophene-3-carboxylic acid(1H-benzoimidazol-2-yl)-amide] |
| 2.4 | CCCc1cc(C(=O)Nc2nncs2)cs1 [Example 24, 5-Propyl-thiophene-3-carboxylic acid[1,3,4]thiadiazol-2-ylamide] |
| 1.5 | Cc1ccc(C(=O)Nc2nccs2)s1 [Example 26, 5-Methyl-thiophene-2-carboxylic acid thiazol-2-ylamide] |
| 2.1 | CCCc1cc(C(=O)Nc2ccc(F)cn2)cs1 [Example 27, 5-Propyl-thiophene-3-carboxylic acid(5-fluoro-pyridin-2-yl)-amide] |
| 2 | CCCc1cc(C(=O)Nc2ccon2)cs1 [Example 28, 5-Propyl-thiophene-3-carboxylic acid isoxazol-3-ylamide] |
| 5.5 | CCCc1cc(C(=O)Nc2ccn(C)n2)cs1 [Example 29, 5-Propyl-thiophene-3-carboxylic acid(1-methyl-1H-pyrazol-3-yl)-amide] |
| 2.7 | CCCc1cc(C(=O)Nc2cc(Cl)ccn2)cs1 [Example 31, 5-Propyl-thiophene-3-carboxylic acid(4-chloro-pyridin-2-yl)-amide] |
| 9.4 | CCCc1sc(C(=O)Nc2nccs2)cc1CC [Example 33, 4-Ethyl-5-propyl-thiophene-2-carboxylic acid thiazol-2-ylamide] |
| 2.7 | CCCc1cc(C(=O)Nc2ccncn2)cs1 [Example 36, 5-Propyl-thiophene-3-carboxylic acid pyrimidin-4-ylamide] |
| 3.6 | CCCc1cc(C(=O)Nc2ccn(Cc3ccccn3)n2)cs1 [Example 37, 5-Propyl-thiophene-3-carboxylic acid(1-pyridin-2-ylmethyl-1H-pyrazol-3-yl)-amide] |
| 2.7 | CCCc1cc(C(=O)Nc2cc[nH]n2)cs1 [Example 38, 5-Propyl-thiophene-3-carboxylic acid(1H-pyrazol-3-yl)-amide] |
| 2.4 | CCCc1cc(C(=O)Nc2cc(C)ccn2)cs1 [Example 39, 5-Propyl-thiophene-3-carboxylic acid(4-methyl-pyridin-2-yl)-amide] |
| 2.6 | CCOC(=O)Cn1ccc(NC(=O)c2cc(COC)cs2)n1 [Example 40, {3-[(4-Methoxymethyl-thiophene-2-carbonyl)-amino]-pyrazol-1-yl}-acetic acid ethyl ester] |
| 2.5 | CCCc1cc(C(=O)Nc2ccccn2)cs1 [Example 41, 5-Propyl-thiophene-3-carboxylic acid pyridin-2-ylamide] |
| 3.3 | CCCc1cc(C(=O)Nc2nc(C(=O)O)cs2)cs1 [Example 42, 2-[(5-Propyl-thiophene-3-carbonyl)-amino]-thiazole-4-carboxylic acid] |
| 1.2 | COCc1csc(C(=O)Nc2cc(C)n(CC(=O)O)n2)c1 [Example 43, {3-[(4-Methoxymethyl-thiophene-2-carbonyl)-amino]-5-methyl-pyrazol-1-yl}-acetic acid] |
| 1.7 | COCc1csc(C(=O)Nc2ccn(CC(=O)O)n2)c1 [Example 44, {3-[(4-Methoxymethyl-thiophene-2-carbonyl)-amino]-pyrazol-1-yl}-acetic acid] |
